The source of these data is patent US20070270350A1, “Methods and Compositions for the Prevention and Treatment of Inflammatory Diseases or Conditions” (MUSC FOUNDATION FOR RESEARCH DEVELOPMENT, priority 2003, published 2007).

The subject of test [1] is Macrophages. The following applies: 10 μM lovastatin or 5 mM NaPA 8 h, LPS 1.0 μg/ml, 24 h.
Test [2] deals with Microglia. The following applies: 10 μM lovastatin or 5 mM NaPA 8 h, LPS 1.0 μg/ml, 24 h.
Test [3] relates to KA-treated rats. Description: KA-induced seizure model (epilepsy model), rat hippocampus. Format: in vivo. The following applies: statin 10 mg/kg orally, 3 days after KA. How it is done: FIG. 45. Experimental design for the use of statins as a therapeutic for kinic acid induced seizures (epilepsy model).
FIG. 46. […] The rats were orally pre-treated (7 days before) with atorvastatin (LP; 10 mg/kg) prior to KA (10 mg/kg, i.p.). At 3 days after KA injection, neuronal cell death in hippocampus was examined using cresyl violet stain.
FIG. 47. […] The rats were orally pre-treated (7 days before) with atorvastatin (LP; 10 mg/kg) prior to KA (10 mg/kg, i.p.). At 3 days after KA injection, infiltration of macrophages in the CA1 and CA3 regions of the hippocampus was examined using immunofluorescent labeling against for ED-1, as a marker of monocytes.
The rats were orally pre-treated (7 days before) with atorvastatin (LP; 10 mg/kg) prior to KA (10 mg/kg, i.p.). At 3 days after KA injection, neuronal cell death in the CA1 (A) and CA3 (B) regions of the hippocampus was examined using TUNNEL assay.
FIG. 49. […] The rats were orally pre-treated (7 days before) with lovastatin (Lov; 10 mg/kg) prior to KA (10 mg/kg, i.p.). At 3 days after KA injection, neuronal cell death in hippocampus was examined using cresyl violet stain.
FIG. 50A-C. […] The rats were orally pre-treated (7 days before) with atorvastatin (LP; 10 mg/kg) prior to KA (10 mg/kg, i.p.). At 3 days after KA injection, the expression of inflammatory genes (TNF-α, IL-1β, and iNOS) in hippocampus using real time PCR. The expression of each gene was normalized with GAPDH expression.
FIG. 51A-C. […] The rats were orally pre-treated (7 days before) with lovastatin (Lov; 10 mg/kg) prior to KA (10 mg/kg, i.p.). At 3 days after KA injection, the expression of inflammatory genes (TNF-α, IL-1β, and iNOS) in hippocampus using real time PCR. The expression of each gene was normalized with GAPDH expression.
Seizure index: stage 1, facial clonus; stage 2, nodding; stage 3, forelimb clonus; stage 4, forelimb clonus with rearing; stage 5, rearing, jumping, and falling. The rats were orally pre-treated (7 days before) with lovastatin or atorvastatin (Lov or LP; 10 mg/kg) prior to KA (10 mg/kg, i.p.).

The subject of test [4] is EAE in SJL/J mice. As to the kind of experiment: Active and passive EAE in SJL/J mice treated with lovastatin. Format: in vivo, mouse. To be noted: i.p. t or 5 mg/kg lovastatin every day, days 0-60 or started on day 10, p<0.001.
The subject of test [5] is T cells. As to the kind of experiment: Cytokine production by PLP139-151-primed DLN cells and naïve T cells. To be noted: lovastatin 10 and 20 μM, p<0.0001. The test is classed as cell-based, mouse. How it is done: (A), (C), (E), (G), and (I) DNL cells were isolated on day 10 from PLP139-151 immunized SJL/J mice and cultured in vitro at 5×10^6 cells/ml in the presence of PLP139-151 (5 μg/ml) and lovastatin (10 and 20 μM). (B) (D), (F), (H), and (J) Naïve T cells (98% purified) isolated from lymph nodes were cultured in anti-CD3 and anti-CD28-precoated plates at 1×10^6 cells/ml with lovastatin (10 and 20 μM). The supernatants were collected at 48 h (for IFN-γ and TNF-α) and 120 h (for IL-4, IL-5, and IL-10) for cytokine measurements. […] The values are the means of triplicate determinations at each point, and the error bars represent +/−SD.

The subject of test [6] is Rat Primary Astrrocytes. The following applies: LPS 1.0 μg/ml, 24 h.
The test system of test [7] is NF-κβ. As to the kind of experiment: Nuclear translocation of NF-κβ in anti-CD3/CD28 stimulated naïve T cells. Format: cell-based, mouse. To be noted: lovastatin 2 h pretreatment, dose-dependent (5-50 μM); anti-CD3 and CD28 4 h.
Setting [8] is: 48 h, PLP-primed and naïve T cells.

For the compound `CC[C@H](C)C(=O)O[C@H]1C[C@@H](C)C=C2C=C[C@H](C)[C@H](CC[C@@H]3C[C@@H](O)CC(=O)O3)[C@H]21` [Lovastatin, lovastatin], the TNF-α in test [1] (LPS only 18.6 +/− 2.3) is 1.2 +/− 0.1 ng/24 h/mg protein; in test [2] (LPS only 14.5 +/− 2.1), 0.9 +/− 0.1 ng/24 h/mg protein; in test [6] (10 μM lovastatin or 5 mM NaPA 8 h, LPS only 5.3 +/− 0.8), 0.3 +/− 0.05 ng/24 h/mg protein. In addition, the Il-1β is on record as 2.3 +/− 0.3 ng/24 h/mg protein in test [1] (LPS only 34.6 +/− 4.5); 2.1 +/− 0.3 ng/24 h/mg protein in test [2] (LPS only 28.2 +/− 3.4); 0.8 +/− 0.1 ng/24 h/mg protein in test [6] (10 μM lovastatin or 5 mM NaPA 8 h, LPS only 10.4 +/− 1.5). Also, the NO in test [1] (LPS only 118.5 +/− 12.5) was 7.2 +/− 0.9 n mol/24 h/mg protein; in test [2] (LPS only 81.2 +/− 6.9), 5.9 +/− 0.4 n mol/24 h/mg protein; in test [6] (10 μM lovastatin or 5 mM NaPA 8 h serum free, LPS only 25.3 +/− 3.2), 5.2 +/− 0.4 n mol/24 h/mg protein. Further, the IL-6 in test [1] (LPS only 350.0 +/− 27.6) is given as 8.3 +/− 0.6 ng/24 h/mg protein; in test [2] (LPS only 295.6 +/− 33.5) it was 7.8 +/− 1.1 ng/24 h/mg protein; in test [6] (10 μM lovastatin or 5 mM NaPA 8 h, LPS only 136.5 +/− 16.8) it was 0.8 +/− 0.1 ng/24 h/mg protein. Besides, the “KA-induced neuronal cell death in hippocampus (cresyl violet stain)” value in test [3] (7 days before KA 10 mg/kg i.p.) is reported as “inhibited”. The “expression of inflammatory genes (TNF-α, IL-1β, and iNOS) induced by KA in hippocampus (real time PCR)” value in test [3] (7 days before KA) is on record as “inhibited”. The “severity of EAE disease (mean clinical scores)” value in test [4] was “significantly less”. Further, in test [5] (setting [8]), the IFN-γ in supernatants entry is listed as “significantly reduced”. The TNF-α in supernatants entry in test [5] (setting [8]) was “significantly reduced”. Further, in test [5] (120 h), the IL-4 in supernatants entry is on record as “significantly increased”. Also, the IL-5 in supernatants result in test [5] (120 h) is on record as “significantly increased”. Also, the IL-10 in supernatants result in test [5] (120 h) is “significantly increased”. In addition, the “nuclear translocation of NF-κβ” value in test [7] is listed as “inhibits”.
